Measured values reported in the supplement of paper PMC3621838.
± gives the standard deviation of the averaged measurements.

System: HEK293 NF-kB-luciferase reporter cells
Assay: NF-kB luciferase reporter activity, robust Z-score vs plate median (robust Z-score (log luminescence)); higher = stronger NF-kB reporter activation
Details: TNF treatment time 8.5 h, transfection time 72 h
Method: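 Primary screen of an Ambion Pre-miR miRNA mimic library (miRBase v8.0, 1.6 pmol/well, 384-well, duplicate) reverse-transfected into HEK293 cells stably expressing a 5x NF-kB firefly luciferase reporter. After 72 h the cells were treated with vehicle or TNF (40 ng/mL) for 8.5 h and luminescence was read (BriteLite). Raw luminescence was log-transformed and converted to a robust Z-score per plate: (x - plate median)/plate MAD. Sequence given is the mature miRNA strand of the double-stranded mimic.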

Sequence | NF-kB luciferase reporter activity (TNF 0 ng/mL) | NF-kB luciferase reporter activity (TNF 40 ng/mL)
CCUCUGGGCCCUUCCUCCAG | 2.88 ± 0.89 | -0.776 ± 0.1
CGAAUGUUGCUCGGUGAACCCCU | -1.7 ± 0.2 | -2.17 ± 0.28
CGCAUCCCCUAGGGCAUUGGUGU | -0.887 ± 0.054 | -0.479 ± 0.1
CGGGUGGAUCACGAUGCAAUUU | 0.731 ± 0.46 | -2.0207 ± 0.0002
CUACAAAGGGAAGCACUUUCUC | -1.11 ± 0.64 | -1.63 ± 0.19
CUCCAGAGGGAAGUACUUUCU | -1.38 ± 1.7 | -1.33 ± 0.13
CUCCAGAGGGAUGCACUUUCU | -1.38 ± 0.64 | -1.09 ± 0.051
CUCCUGACUCCAGGUCCUGUGU | 1.44 ± 0.61 | 1.21 ± 0.14
CUCUAGAGGGAAGCACUUUCU | 0.466 ± 0.17 | 0.664 ± 0.074
CUCUAGAGGGAAGCACUUUCUCU | 1.17 ± 0.88 | 0.571 ± 0.12
CUCUAGAGGGAAGCGCUUUCUGUU | 1.69 ± 0.18 | 0.579 ± 0.019
CUCUUGAGGGAAGCACUUUCUGUU | 1.14 ± 0.36 | 0.555 ± 0.059
CUGACCUAUGAAUUGACAGCC | -0.152 ± 0.091 | -0.0202 ± 0.12
CUGCAAAGGGAAGCCCUUUCU | -0.197 ± 1 | -0.78 ± 0.054
CUGGACUUAGGGUCAGAAGGCC | 0.0764 ± 0.11 | 0.411 ± 0.022
CUGGACUUGGAGUCAGAAGGCC | -1.02 ± 0.24 | -0.191 ± 0.11
CUGGAUGGCUCCUCCAUGUCU | 0.547 ± 0.21 | -0.772 ± 0.095
CUGGCCCUCUCUGCCCUUCCGU | 0.704 ± 0.42 | -0.112 ± 0.19
CUGUGCGUGUGACAGCGGCUGA | 0.091 ± 0.43 | -2.3857 ± 0.00042

Sequence | NF-kB luciferase reporter activity (TNF 0 ng/mL) | NF-kB luciferase reporter activity (TNF 40 ng/mL)
CUUUCAGUCGGAUGUUUACAGC | -0.449 ± 0.15 | 1 ± 0.025
CUUUUUGCGGUCUGGGCUUGC | 0.334 ± 0.36 | -0.65 ± 0.076
GAAGGCGCUUCCCUUUAGAGC | -0.845 ± 0.78 | -0.47 ± 0.02
GAAGGCGCUUCCCUUUGGAGU | -0.702 ± 0.69 | -0.567 ± 0.046
GAAGUGCUUCGAUUUUGGGGUGU | -1.7 ± 0.2 | -0.363 ± 0.1
GAAGUUGUUCGUGGUGGAUUCG | -0.0557 ± 0.33 | -0.602 ± 0.087
GAGGUUGUCCGUGGUGAGUUCG | -0.468 ± 0.88 | -2.08 ± 0.48
GAGUGCCUUCUUUUGGAGCGU | -0.314 ± 0.76 | -0.822 ± 0.14
GCAAAGCACACGGCCUGCAGAGA | -0.287 ± 0.28 | -0.658 ± 0.027
GCACAUUACACGGUCGACCUCU | -0.263 ± 0.11 | 1.28 ± 0.042
GCCCCUGGGCCUAUCCUAGAA | 1.22 ± 0.89 | 0.489 ± 0.046
GCCUGCUGGGGUGGAACCUGG | -0.469 ± 0.36 | 0.451 ± 0.051
GCUGCGCUUGGAUUUCGUCCCC | -0.0918 ± 0.13 | 0.328 ± 0.013
GGAGAAAUUAUCCUUGGUGUGU | 0.189 ± 0.13 | 0.256 ± 0.16
GGUAGAUUCUCCUUCUAUGAG | -0.702 ± 0.69 | -1.25 ± 0.063
GUCAACACUUGCUGGUUUCCUC | -0.0513 ± 0.073 | -0.799 ± 0.029
GUCAUACACGGCUCUCCUCUCU | 0.54 ± 0.4 | -1.19 ± 0.14
GUGAAAUGUUUAGGACCACUAG | 0.966 ± 1.4 | 0.9884 ± 0.0031
GUGCCGCCAUCUUUUGAGUGU | 0.919 ± 0.46 | -1.45 ± 0.12
